Measurements from patent publication US7807439B2, “Staphylococcus aureus-specific detection media and identifying and/or counting method using same” (Biomerieux S.A., priority 2001, dated 2010).

Key:
S. aureus 070 = test: Experiment 5: fluorescent substrates in liquid medium, VITEK 2 reading; assay type: cell-based, Staphylococcus aureus; details: substrate 200 mg/l, read over 19 hours
Procedure: (§1) The media below were prepared in the base of the medium described in experiment 1, but in the absence of agar and in the presence of a fluorescent substrate instead of a chromogenic substrate. […] The various liquid media are distributed into the cupules of a support the size of a bank card, specific for the automated VITEK 2 (trademark) system of the company bioMérieux. […] The results, given in table 9 below, represent the incubation time, in hours, required to obtain the maximum level of fluorescence which can be measured by the device: […]

S. aureus 276 [1] = test: as above; assay type: cell-based, Staphylococcus aureus; details: substrate 200 mg/l, read over 19 hours
Procedure: as §1

S. epidermidis 009 = test: as above; assay type: cell-based, Staphylococcus epidermidis; details: substrate 200 mg/l, read over 19 hours
Procedure: as §1

S. xylosus 008 = test: as above; assay type: cell-based, Staphylococcus xylosus; details: substrate 200 mg/l, read over 19 hours
Procedure: as §1

S. saprophyticus 030 = test: as above; assay type: cell-based, Staphylococcus saprophyticus; details: substrate 200 mg/l, read over 19 hours
Procedure: as §1

S. haemolyticus 131 = test: as above; assay type: cell-based, Staphylococcus haemolyticus; details: substrate 200 mg/l, read over 19 hours
Procedure: as §1

S. intermedius 075 [2] = test: as above; assay type: cell-based, Staphylococcus intermedius; details: substrate 200 mg/l, read over 19 hours
Procedure: as §1

[3] = test system: coagulase-positive staphylococcal strains; test: Experiment 5: fluorescent substrates, summary for coagulase-positive strains; assay type: cell-based, Staphylococcus aureus and Staphylococcus intermedius
Procedure: as §1

[4] = test system: coagulase-negative strains; test: Experiment 5: fluorescent substrates, summary for coagulase-negative strains; assay type: cell-based
Procedure: as §1

Staphylococcal species = test: Experiment 6: Staphylococcal growth in the presence of inhibitors; assay type: cell-based, Staphylococcus; details: inhibitors added to the medium, concentrations per mixture
S. aureus 276 [5] = test: Experiment 4: naphthol derivative substrates in API galleries, liquid medium; assay type: cell-based, Staphylococcus aureus; parameters: key to intensity of coloration (enzyme activity mark): the mark 0 corresponds to a negative reaction; marks 1, 2, 3 and 4 indicate intermediate levels of coloration and therefore of enzyme activity; marks 1, 2, 3 and 4 indicate intermediate levels of coloration and therefore of enzyme activity; marks 1, 2, 3 and 4 indicate intermediate levels of coloration and therefore of enzyme activity; marks 1, 2, 3 and 4 indicate intermediate levels of coloration and therefore of enzyme activity; the mark 5 to a reaction of maximum intensity; details: for intensity of coloration (enzyme activity mark): S. aureus 276, 4 hours of incubation at 37° C.
Procedure: (§2) The experiment below was carried out in a liquid medium and in the presence of naphthol derivative-based chromogenic substrates.
(§3) The medium and the substrates are distributed into API “galleries” (trademark) produced by the company bioMérieux at Marcy I'Etoile, France.
(§4) These “galleries” constitute a semi-quantitative method for searching for enzyme activities in microorganisms and make it possible to rapidly and simultaneously study nineteen enzyme activities. Each “gallery” comprises twenty cupules in which the solutions containing the enzyme substrates are distributed. The enzyme assays are carried out by distributing 65 μl of bacterial suspension at 5-6 McFarland into each cupule.
(§5) The intensity of coloration for each cupule is examined visually after 4 hours of incubation at 37° C. and after the addition of appropriate reagents: ZYM A (ref.: 70470) and ZYM B (ref.: 70480), which can be obtained from bioMérieux also mentioned above. The intensity of coloration will be directly proportional to the amount of substrate hydrolysed by the enzyme.
(§6) The values for the intensity of coloration are then marked on a results sheet according to the following classification: the mark 0 corresponds to a negative reaction, the mark 5 to a reaction of maximum intensity, marks 1, 2, 3 and 4 indicate intermediate levels of coloration and therefore of enzyme activity. More detailed information on this marking can be found in the API reading scale provided with the “galleries” of the same name.
(§7) The enzyme activity sought and the corresponding naphthol derivative substrates are described in table 6 below: […]

S. saprophyticus 009 = test: as above; assay type: cell-based, Staphylococcus saprophyticus; parameters: key: the mark 0 corresponds to a negative reaction; marks 1, 2, 3 and 4 indicate intermediate levels of coloration and therefore of enzyme activity; marks 1, 2, 3 and 4 indicate intermediate levels of coloration and therefore of enzyme activity; marks 1, 2, 3 and 4 indicate intermediate levels of coloration and therefore of enzyme activity; marks 1, 2, 3 and 4 indicate intermediate levels of coloration and therefore of enzyme activity; the mark 5 to a reaction of maximum intensity; details: 4 hours of incubation at 37° C.
Procedure: as §2, §3, §4, §5, §6, §7

S. epidermidis 103 = test: as above; assay type: cell-based, Staphylococcus epidermidis; parameters: key: the mark 0 corresponds to a negative reaction; marks 1, 2, 3 and 4 indicate intermediate levels of coloration and therefore of enzyme activity; marks 1, 2, 3 and 4 indicate intermediate levels of coloration and therefore of enzyme activity; marks 1, 2, 3 and 4 indicate intermediate levels of coloration and therefore of enzyme activity; marks 1, 2, 3 and 4 indicate intermediate levels of coloration and therefore of enzyme activity; the mark 5 to a reaction of maximum intensity; details: 4 hours of incubation at 37° C.
Procedure: as §2, §3, §4, §5, §6, §7

S. haemolyticus 137 = test: as above; assay type: cell-based, Staphylococcus haemolyticus; parameters: key: the mark 0 corresponds to a negative reaction; marks 1, 2, 3 and 4 indicate intermediate levels of coloration and therefore of enzyme activity; marks 1, 2, 3 and 4 indicate intermediate levels of coloration and therefore of enzyme activity; marks 1, 2, 3 and 4 indicate intermediate levels of coloration and therefore of enzyme activity; marks 1, 2, 3 and 4 indicate intermediate levels of coloration and therefore of enzyme activity; the mark 5 to a reaction of maximum intensity; details: 4 hours of incubation at 37° C.
Procedure: as §2, §3, §4, §5, §6, §7

S. intermedius 075 [6] = test: as above; assay type: cell-based, Staphylococcus intermedius; parameters: key: the mark 0 corresponds to a negative reaction; marks 1, 2, 3 and 4 indicate intermediate levels of coloration and therefore of enzyme activity; marks 1, 2, 3 and 4 indicate intermediate levels of coloration and therefore of enzyme activity; marks 1, 2, 3 and 4 indicate intermediate levels of coloration and therefore of enzyme activity; marks 1, 2, 3 and 4 indicate intermediate levels of coloration and therefore of enzyme activity; the mark 5 to a reaction of maximum intensity; details: 4 hours of incubation at 37° C.
Procedure: as §2, §3, §4, §5, §6, §7

α-glucosidase = test: Experiment 6: detection of α-glucosidase activity in the presence of inhibitors; assay type: cell-based, Staphylococcus; details: inhibitors added to the medium, concentrations per mixture

| Molecule | hours of incubation required to obtain the maximum level of fluorescence (S. aureus 070) | hours of incubation required to obtain the maximum level of fluorescence (S. aureus 276 [1]) | hours of incubation required to obtain the maximum level of fluorescence (S. epidermidis 009) | hours of incubation required to obtain the maximum level of fluorescence (S. xylosus 008) | hours of incubation required to obtain the maximum level of fluorescence (S. saprophyticus 030) | hours of incubation required to obtain the maximum level of fluorescence (S. haemolyticus 131) | hours of incubation required to obtain the maximum level of fluorescence (S. intermedius 075 [2]) | intensity of coloration (enzyme activity mark) (S. aureus 276 [5]) | intensity of coloration (enzyme activity mark) (S. saprophyticus 009) | intensity of coloration (enzyme activity mark) (S. epidermidis 103) | intensity of coloration (enzyme activity mark) (S. haemolyticus 137) | intensity of coloration (enzyme activity mark) (S. intermedius 075 [6]) | other results |
| --- | --- | --- | --- | --- | --- | --- | --- | --- | --- | --- | --- | --- | --- |
| Cc1cc(=O)oc2cc(O[C@H]3O[C@H](CO)[C@@H](O)[C@H](O)[C@H]3O)ccc12 [4-MU-α-GLU, 4-methylumbelliferyl-α-D-glucoside] | 8 h | 7 h | 19 h | 11 h | 19 h | 19 h | 5 h |  |  |  |  |  | incubation time to obtain a maximum level of fluorescence [3]: < 8 h; incubation time to obtain a maximum level of fluorescence [4]: > 10 h |
| Cc1cc(=O)oc2cc(O[C@@H]3O[C@H](CO)[C@H](O)[C@H](O)[C@H]3O)ccc12 [4-MU-β-GAL, 4-methylumbelliferyl-β-D-galactoside] | 3 h | 3 h | 4 h | 5 h | 12 h | 12 h | 2 h |  |  |  |  |  |  |
| Cc1cc(=O)oc2cc(O[C@@H]3O[C@H](CO)[C@@H](O)[C@H](O)[C@H]3O)ccc12 [4-MU-β-GLU, 4-methylumbelliferyl-β-D-glucoside] | 4 h | 6 h | 8 h | 9 h | 9 h | 7 h | 7 h |  |  |  |  |  |  |
| Cc1cc(=O)oc2cc(O[C@@H]3O[C@H](C(=O)O)[C@@H](O)[C@H](O)[C@H]3O)ccc12 [4-MU-β-GUR, 4-methylumbelliferyl-β-D-glucuronide] | 3 h | 3 h | 4 h | 5 h | 19 h | 19 h | 2 h |  |  |  |  |  |  |
| [Cl-].[Li+] [LiCl, lithium chloride] |  |  |  |  |  |  |  |  |  |  |  |  | Staphylococcal growth (Staphylococcal species): decreases |
| O=P(O)(O)Oc1ccc2ccccc2c1 [No 2, 2-naphthyl-phosphate] |  |  |  |  |  |  |  | 2 | 1 | 3 | 0 | 4 |  |
| OC[C@H]1O[C@H](Oc2ccc3cc(Br)ccc3c2)[C@H](O)[C@@H](O)[C@H]1O [No 3, 6-bromo-2-naphthyl-α-D-galactopyranoside] |  |  |  |  |  |  |  | 0 | 0 | 0 | 0 | 0 |  |
| OC[C@H]1O[C@@H](Oc2ccc3ccccc3c2)[C@H](O)[C@@H](O)[C@H]1O [No 4, 2-naphthyl-β-D-galactopyranoside] |  |  |  |  |  |  |  | 0 | 3 | 0 | 0 | 3 |  |
| OC[C@H]1O[C@H](Oc2ccc3ccccc3c2)[C@H](O)[C@@H](O)[C@@H]1O [No 6, 2-naphthyl-α-D-glucopyranoside] |  |  |  |  |  |  |  | 5 | 1 | 1 | 2 | 1 | α-glucosidase activity (S. aureus 276 [5]; Staphylococcus aureus strain, API gallery): strongly expressed |
| OC[C@H]1O[C@@H](Oc2ccc3cc(Br)ccc3c2)[C@H](O)[C@@H](O)[C@@H]1O [No 7, 6-bromo-2-naphtyl-β-D-glucopyranoside] |  |  |  |  |  |  |  | 0 | 0 | 0 | 0 | 0 |  |
| C[C@H]1[C@H](NC(=O)/C(=N\OC(C)(C)C(=O)O)c2csc(N)n2)C(=O)N1S(=O)(=O)O [aztreonam] |  |  |  |  |  |  |  |  |  |  |  |  | Staphylococcal growth (Staphylococcal species): does not disturb the bacterial growth; effect on detection/expression of α-glucosidase (α-glucosidase): very slightly decreased |
| colistin |  |  |  |  |  |  |  |  |  |  |  |  | Staphylococcal growth (Staphylococcal species): virtually no effect |
| naphthol-β-D-glucuronide [No 5] |  |  |  |  |  |  |  | 0 | 0 | 0 | 0 | 0 |  |
